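96-well plates; 48 h exposure; 5 concentrations. Endpoints by linear interpolation between flanking doses. Not reached: highest tested concentration assigned. At the GI50, growth is halved.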 The source made the active and inactive calls. Cut-off read from the data, not from the text of the source: active = GI50 up to about 1.1 µM and inactive = higher. Where a SMILES comes first, the peptide text is derived from it. The star is where a group is joined. Boc = CC(C)(C)OC(=O)*; Bn = c1ccc(C*)cc1

Data on 11 compounds can be found in ChEMBL document CHEMBL1201862, “PubChem BioAssay data set” (2004).

Holding throughout (test): NCI tumour cell line growth inhibition, 48 h
The test system of assay [1] is MDA-MB-231.
Assay [2] deals with NCI-H522.
Assay [3] deals with CCRF-CEM.
For assay [4], the system named is OVCAR-5.
Assay [5] relates to HOP-92.
The subject of assay [6] is K562.
The subject of assay [7] is 786-0.
For assay [8], the system named is TK-10.
The subject of assay [9] is HOP-62.
In assay [10] the test system is ACHN.
The subject of assay [11] is RPMI-8226.
Assay [12] deals with MDA-MB-435.
For assay [13], the system named is SK-MEL-2.
The subject of assay [14] is SN12C.
Assay [15] deals with KM12.
Assay [16] concerns HCC 2998.
The subject of assay [17] is LOX IMVI.
Assay [18] relates to CAKI-1.
Assay [19] has as its system OVCAR-8.
The subject of assay [20] is MDA-N.

Regarding `CCCCCCCCCCCCCCCCCCNc1ccn(C2OC(COP(=O)(O)OCCCCCCCCCCCCCCCC)C(O)C2O)c(=O)n1` (stereo not given), the GI50 was > 100 µM (inactive) in assay [1]; 51.3 µM (inactive) in assay [2]; 77.8 µM (inactive) in [3]; > 100 µM (inactive) in assay [4]; > 100 µM (inactive) in [5]; > 100 µM (inactive) in assay [6]. For the same compound, the GI50 in assay [7], in assay [8], in [9], in assay [10], in assay [11] and in assay [12] was > 100 µM (inactive) in each case. Further, the GI50 in assay [13] is > 100 µM (inactive); in assay [14], > 100 µM (inactive); in assay [15], > 100 µM (inactive); in assay [16], > 100 µM (inactive); in assay [17], 82 µM (inactive); in assay [18], > 100 µM (inactive). The GI50 in [19] is > 100 µM (inactive).
Turning to `Clc1ccc(-c2nnc3c4nnc(-c5ccc(Cl)cc5Cl)n4c4ccccc4n23)c(Cl)c1`, the GI50 was > 100 µM (inactive) in [2]; > 100 µM (inactive) in assay [3]; > 100 µM (inactive) in [4]; 92.3 µM (inactive) in assay [5]; > 100 µM (inactive) in assay [6]; 82.4 µM (inactive) in assay [7]. Also, the GI50 in assay [8], in assay [9], in assay [10], in [11], in assay [13] and in assay [14] was > 100 µM (inactive) throughout. Moreover, the GI50 in assay [15], in [16], in assay [17], in assay [18] and in assay [19] was > 100 µM (inactive) in each case.
Take `COC(=O)CCCC(=O)C1=NN(c2ccc(Cl)cc2)Cc2ccccc2N1`: the GI50 is > 100 µM (inactive) in assay [1]; 54.7 µM (inactive) in assay [2]; > 100 µM (inactive) in [3]; > 100 µM (inactive) in [4]; > 100 µM (inactive) in assay [5]; > 100 µM (inactive) in assay [6]. Further, the GI50 in assay [7] was 17.6 µM (inactive); in [8], > 100 µM (inactive); in assay [9], 60.5 µM (inactive); in assay [10], > 100 µM (inactive); in assay [11], > 100 µM (inactive); in [12], > 100 µM (inactive). Also, the GI50 in assay [13], in assay [14], in assay [15], in assay [16], in assay [17] and in assay [18] was > 100 µM (inactive) throughout. Further, the GI50 in [19] was 56.4 µM (inactive).
For `N#C/C(C(=O)Nc1ccc(Cl)cc1)=C(/N)N1CCCC1`, the GI50 in assay [3], in [4], in [5], in assay [6], in assay [7] and in assay [9] was > 100 µM (inactive) each time. The GI50 in assay [10], in [11], in assay [12], in [13], in assay [14] and in assay [20] was > 100 µM (inactive) throughout. Besides, the GI50 in assay [15], in assay [16], in assay [17], in assay [18] and in [19] was > 100 µM (inactive) each time.
On to `CN(C)CCCn1cnc2ncccc2c1=O`, for which the GI50 in assay [2], in assay [3], in [4], in assay [5], in assay [6] and in [7] was > 100 µM (inactive) each time. Besides, the GI50 in assay [8], in assay [9], in assay [10], in assay [13], in assay [14] and in assay [15] was > 100 µM (inactive) each time. The GI50 in assay [16], in assay [17], in [18] and in [19] was > 100 µM (inactive) throughout.
Take `CC1(C)CC(=O)C(/C(=N/NC(=S)NN)C(=O)Nc2nc3ccc([N+](=O)[O-])cc3s2)C(=O)C1`: the GI50 in assay [2] was > 100 µM (inactive); in assay [3] it was 38.2 µM (inactive); in assay [4], > 100 µM (inactive); in assay [5], > 100 µM (inactive); in [6] it was 62.1 µM (inactive); in [7], > 100 µM (inactive). In addition, the GI50 in assay [8], in [9], in assay [10], in [13], in assay [14] and in [15] was > 100 µM (inactive) throughout. Besides, the GI50 in [16], in [17], in assay [18] and in assay [19] was > 100 µM (inactive) throughout.
On to `CC1=C(C(=O)Nc2cc(F)c(F)cc2F)C(c2ccc([N+](=O)[O-])cc2)C(C(=O)Nc2cc(F)c(F)cc2F)=C(C)N1`, for which the GI50 in assay [2] was 15.7 µM (inactive); in [3], 16.5 µM (inactive); in assay [4], 35 µM (inactive); in assay [5] it was 12.8 µM (inactive); in assay [6], 24.2 µM (inactive); in [7], 42.7 µM (inactive). For the same compound, the GI50 in [8] was 22.5 µM (inactive); in assay [9] it was 19.6 µM (inactive); in assay [10], 27.1 µM (inactive); in assay [11] it was 14 µM (inactive); in [13], 18 µM (inactive); in [14] it was 40.7 µM (inactive). Moreover, the GI50 in assay [15] is 29.3 µM (inactive); in [16] it was 21.4 µM (inactive); in [17], 80.2 µM (inactive); in assay [18], 18.5 µM (inactive); in assay [19] it was 33.8 µM (inactive).
Turning to `CN(C)CC1CCCCCC(Br)C1=O` (stereo not given), the GI50 is 16.1 µM (inactive) in assay [1]; 3.66 µM (inactive) in [2]; 0.352 µM (active) in assay [3]; 17.2 µM (inactive) in assay [4]; 5.66 µM (inactive) in assay [5]; 2.02 µM (inactive) in [6]. Moreover, the GI50 in assay [7] was 2.25 µM (inactive); in assay [8], 4.06 µM (inactive); in assay [9], 24.8 µM (inactive); in assay [10], 6.79 µM (inactive); in [11], 0.61 µM (active); in assay [12], 16 µM (inactive). For the same compound, the GI50 in assay [13] is 20.7 µM (inactive); in [14] it was 16.8 µM (inactive); in assay [15], 18.4 µM (inactive); in assay [16] it was 4.57 µM (inactive); in [17] it was 12.7 µM (inactive); in [18], 6.59 µM (inactive). The GI50 in assay [19] is 13 µM (inactive).
Regarding `Cc1ccc(C(=O)CC2(O)C(=O)Nc3c(C)cc(Cl)cc32)cc1` (stereo not given), the GI50 in assay [2] was > 100 µM (inactive); in [3] it was > 100 µM (inactive); in [4], > 100 µM (inactive); in [5], > 100 µM (inactive); in assay [6], 86.5 µM (inactive); in assay [7], > 100 µM (inactive). Besides, the GI50 in assay [8] was > 100 µM (inactive); in assay [9], > 100 µM (inactive); in assay [10] it was > 100 µM (inactive); in assay [11], 43.2 µM (inactive); in [13], > 100 µM (inactive); in assay [14] it was > 100 µM (inactive). Also, the GI50 in [15], in assay [16], in [17], in [18] and in [19] was > 100 µM (inactive) throughout.
With `COC(=O)C(CC(C)C)NC(=O)C(C)NC(=O)C(Cc1ccc(OCc2ccccc2)cc1)NC(=O)C(COCc1ccccc1)NC(=O)OC(C)(C)C` (stereo not given) (Boc-S(Bn)Y(Bn)AL-OMe; configuration not given here), the GI50 in [2], in [4], in assay [5], in assay [6], in assay [7] and in assay [8] was > 100 µM (inactive) each time. Further, the GI50 in [9], in assay [10], in assay [11], in [12], in [14] and in [20] was > 100 µM (inactive) throughout. Moreover, the GI50 in assay [15], in [17], in [18] and in assay [19] was > 100 µM (inactive) throughout.
Turning to `Cc1nc(=O)c2cc(CN(C)c3ccc(C(=O)N[C@@H](CCC(=O)O)C(=O)O)s3)ccc2[nH]1` [RALTITREXED], the GI50 in [1] is > 100 µM (inactive); in assay [2] it was > 100 µM (inactive); in [4], > 100 µM (inactive); in [5] it was > 100 µM (inactive); in [6], 0.0104 µM (active); in assay [7], 0.0438 µM (active). The GI50 in assay [8] is > 100 µM (inactive); in assay [9], 0.13 µM (active); in assay [10], 0.0467 µM (active); in assay [11], 0.0834 µM (active); in assay [12] it was > 100 µM (inactive); in assay [13], > 100 µM (inactive). Further, the GI50 in [14] is 0.65 µM (active); in assay [15] it was > 100 µM (inactive); in [17], 0.0303 µM (active); in [18], > 100 µM (inactive); in [19], 0.0883 µM (active).
